Test results from PubChem BioAssay AID180 (DTP/NCI, 2004).
“And” between values parts separate entries of the source, which are not always exact repeats. Equal values may be shown once.

Tested on: BDF1 mice, Adenocarcinoma 755 s.c., tumor weight T/C
Experiment: NCI In Vivo Anticancer Drug Screen. Data for tumor model Adenocarcinoma 755 (subcutaneous) in B6D2F1 (BDF1) mice
Conditions: endpoint: mean tumor weight, schedule: Q01DX011 (ip), higher = larger tumour
Outline: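 Values express treated (T) relative to vehicle-dosed control (C) animals, based on survival or tumour size measured after compound treatment of mice bearing a transplanted tumour.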

## Nc1nc(=S)c2[nH]cnc2[nH]1
dose: 0.01 mg/kg/injection, vehicle: saline
  T/C: 113 % of control
dose: 0.03 mg/kg/injection, vehicle: saline
  T/C: 81 % of control
dose: 0.06 mg/kg/injection, vehicle: saline
  T/C: 88 % of control
dose: 0.07 mg/kg/injection, vehicle: alkali diluted with saline
  T/C: 74 % of control
dose: 0.07 mg/kg/injection, vehicle: methylcellulose (MC)
  T/C: 28 % of control
dose: 0.12 mg/kg/injection, vehicle: carboxymethylcellulose (CMC)
  T/C: 112 % of control
dose: 0.12 mg/kg/injection, vehicle: saline
  T/C: 66 % of control
dose: 0.13 mg/kg/injection, vehicle: alkali diluted with saline
  T/C: 95 % of control
dose: 0.13 mg/kg/injection, vehicle: other
  T/C: 91 % of control
dose: 0.13 mg/kg/injection, vehicle: saline
  T/C: 7 % of control
dose: 0.18 mg/kg/injection, vehicle: carboxymethylcellulose (CMC)
  T/C: 32 % of control
dose: 0.2 mg/kg/injection, vehicle: methylcellulose (MC)
  T/C: 39 % of control
dose: 0.24 mg/kg/injection, vehicle: carboxymethylcellulose (CMC)
  T/C: 77 % of control
dose: 0.25 mg/kg/injection, vehicle: alkali diluted with saline
  T/C: 53 % of control
dose: 0.25 mg/kg/injection, vehicle: distilled water + alcohol
  T/C: 7 % of control
dose: 0.25 mg/kg/injection, vehicle: methylcellulose (MC)
  T/C: 4 % of control and 11 % of control and 15 % of control
dose: 0.25 mg/kg/injection, vehicle: other
  T/C: 32 % of control
dose: 0.35 mg/kg/injection, vehicle: carboxymethylcellulose (CMC)
  T/C: 9 % of control
dose: 0.4 mg/kg/injection, vehicle: methylcellulose (MC)
  T/C: 12 % of control
dose: 0.47 mg/kg/injection, vehicle: carboxymethylcellulose (CMC)
  T/C: 34 % of control
dose: 0.5 mg/kg/injection, vehicle: alkali diluted with saline
  T/C: 4 % of control
dose: 0.5 mg/kg/injection, vehicle: distilled water + alcohol
  T/C: 7 % of control
dose: 0.5 mg/kg/injection, vehicle: other
  T/C: 8 % of control
dose: 0.5 mg/kg/injection, vehicle: saline
  T/C: 8 % of control
dose: 0.7 mg/kg/injection, vehicle: carboxymethylcellulose (CMC)
  T/C: 7 % of control
dose: 0.94 mg/kg/injection, vehicle: carboxymethylcellulose (CMC)
  T/C: 30 % of control
dose: 1.0 mg/kg/injection, vehicle: alkali diluted with saline
  T/C: 1 % of control
dose: 1.0 mg/kg/injection, vehicle: carboxymethylcellulose (CMC)
  T/C: 1 % of control and 2 % of control
dose: 1.0 mg/kg/injection, vehicle: distilled water + alcohol
  T/C: 2 % of control
dose: 1.0 mg/kg/injection, vehicle: other
  T/C: 3 % of control
dose: 1.0 mg/kg/injection, vehicle: saline
  T/C: 2 % of control and 8 % of control
dose: 1.4 mg/kg/injection, vehicle: carboxymethylcellulose (CMC)
  T/C: 5 % of control
dose: 1.5 mg/kg/injection, vehicle: methylcellulose (MC)
  T/C: 4 % of control
dose: 2.0 mg/kg/injection, vehicle: alkali diluted with saline
  T/C: 1 % of control
dose: 2.0 mg/kg/injection, vehicle: carboxymethylcellulose (CMC)
  T/C: 1 % of control
dose: 2.0 mg/kg/injection, vehicle: other
  T/C: 2 % of control
dose: 2.0 mg/kg/injection, vehicle: saline
  T/C: 3 % of control and 7 % of control
dose: 3.0 mg/kg/injection, vehicle: methylcellulose (MC)
  T/C: 3 % of control
dose: 4.0 mg/kg/injection, vehicle: carboxymethylcellulose (CMC)
  T/C: 1 % of control
dose: 4.0 mg/kg/injection, vehicle: methylcellulose (MC)
  T/C: 3 % of control
dose: 4.0 mg/kg/injection, vehicle: other
  T/C: 1 % of control
dose: 46.0 micrograms/kg/injection, vehicle: carboxymethylcellulose (CMC)
  T/C: 72 % of control
dose: 49.0 micrograms/kg/injection, vehicle: carboxymethylcellulose (CMC)
  T/C: 118 % of control
dose: 58.0 micrograms/kg/injection, vehicle: carboxymethylcellulose (CMC)
  T/C: 91 % of control
dose: 62.0 micrograms/kg/injection, vehicle: carboxymethylcellulose (CMC)
  T/C: 77 % of control
dose: 77.0 micrograms/kg/injection, vehicle: carboxymethylcellulose (CMC)
  T/C: 54 % of control
dose: 82.0 micrograms/kg/injection, vehicle: carboxymethylcellulose (CMC)
  T/C: 69 % of control
dose: 90.0 micrograms/kg/injection, vehicle: methylcellulose (MC)
  T/C: 32 % of control
dose: 93.0 micrograms/kg/injection, vehicle: carboxymethylcellulose (CMC)
  T/C: 28 % of control
dose: 116.0 micrograms/kg/injection, vehicle: carboxymethylcellulose (CMC)
  T/C: 12 % of control and 36 % of control
dose: 140.0 micrograms/kg/injection, vehicle: carboxymethylcellulose (CMC)
  T/C: 11 % of control
dose: 155.0 micrograms/kg/injection, vehicle: carboxymethylcellulose (CMC)
  T/C: 6 % of control
dose: 175.0 micrograms/kg/injection, vehicle: carboxymethylcellulose (CMC)
  T/C: 4 % of control
dose: 187.0 micrograms/kg/injection, vehicle: methylcellulose (MC)
  T/C: 11 % of control
dose: 232.0 micrograms/kg/injection, vehicle: carboxymethylcellulose (CMC)
  T/C: 13 % of control
dose: 233.0 micrograms/kg/injection, vehicle: carboxymethylcellulose (CMC)
  T/C: 2 % of control and 5 % of control
dose: 350.0 micrograms/kg/injection, vehicle: carboxymethylcellulose (CMC)
  T/C: 3 % of control and 4 % of control
dose: 375.0 micrograms/kg/injection, vehicle: methylcellulose (MC)
  T/C: 9 % of control
dose: 490.0 micrograms/kg/injection, vehicle: carboxymethylcellulose (CMC)
  T/C: 5 % of control
dose: 750.0 micrograms/kg/injection, vehicle: methylcellulose (MC)
  T/C: 4 % of control
dose: 980.0 micrograms/kg/injection, vehicle: carboxymethylcellulose (CMC)
  T/C: 4 % of control
dose: 1500.0 micrograms/kg/injection, vehicle: methylcellulose (MC)
  T/C: 3 % of control
dose: 3000.0 micrograms/kg/injection, vehicle: methylcellulose (MC)
  T/C: 4 % of control

## Clc1ncnc2c1ncn2C1CCCCC1
dose: 6.25 mg/kg/injection, vehicle: carboxymethylcellulose (CMC)
  T/C: 91 % of control
dose: 12.5 mg/kg/injection, vehicle: carboxymethylcellulose (CMC)
  T/C: 73 % of control
dose: 25.0 mg/kg/injection, vehicle: carboxymethylcellulose (CMC)
  T/C: 81 % of control

## Nc1nc(N)c(N=O)c(Nc2ccc(Br)cc2)n1
dose: 5.0 mg/kg/injection, vehicle: methylcellulose (MC)
  T/C: 71 % of control
dose: 10.0 mg/kg/injection, vehicle: methylcellulose (MC)
  T/C: 32 % of control
dose: 20.0 mg/kg/injection, vehicle: methylcellulose (MC)
  T/C: 20 % of control and 31 % of control
dose: 22.0 mg/kg/injection, vehicle: methylcellulose (MC)
  T/C: 44 % of control
dose: 40.0 mg/kg/injection, vehicle: methylcellulose (MC)
  T/C: 16 % of control
dose: 44.0 mg/kg/injection, vehicle: methylcellulose (MC)
  T/C: 21 % of control
dose: 88.0 mg/kg/injection, vehicle: methylcellulose (MC)
  T/C: 20 % of control and 30 % of control
